Columns and labels:
[1] = Lipid hydroperoxide (LOOH) formation in cholesterol-enriched model membranes under autoxidation, CHOD-iodide assay (Example 3); format: biochemical; conditions: EPA to lipids 1:30, C/P 0.6:1
Method: An experiment was conducted to test EPA in model membranes enriched with PUFAs and cholesterol at levels that reproduce disease or high CV-risk conditions (i.e., hypercholesterolemia). […] Levels of lipid hydroperoxides were also measured in cholesterol-enriched membrane prepared in the absence of EPA as a control. […] CHOD-iodide color reagent (stock) was prepared according to a procedure modified from El-Saadani et […], Goher […], Jurgens G. A spectrophotometric assay for lipid peroxides in serum lipoproteins using commercially available reagent. J. Lipid. […] Membrane samples consisting of DLPC±cholesterol were prepared as follows. Component lipids (in chloroform) were transferred to 13×100 mm test tubes and shell-dried under a steady stream of nitrogen gas while vortex mixing. The lipid was co-dried with EPA. Residual solvent was removed by drying for a minimum of 3 h under vacuum. […] Absorbances were measured against a CHOD blank at 365 nm using a Beckman DU-640 spectrophotometer. The CHOD colorimetric assay is based on the oxidation of iodide (I^-) by lipid hydroperoxides (LOOH) and proceeds according to the following reaction scheme: […]3^- The quantity of triiodide anion (I3^-) liberated in this reaction is directly proportional to the amount of lipid hydroperoxides present in the membrane sample.

[2] = Small angle x-ray diffraction of glucose-treated model membranes, cholesterol domain peak intensity (Example 4); format: physicochemical; conditions: 96-hour time point; vs vehicle or vitamin E treatments; 1:30; glucose 200 mg/dL
Method: After centrifugal orientation, sample supernatants were aspirated and aluminum foil substrates, each supporting a single membrane pellet, were removed from the sedimentation cells. […] All x-ray diffraction experiments were conducted at 20° C., 74% relative humidity.
Oriented membrane samples were aligned at grazing incidence with respect to a collimated, mono-chromatic CuKα x-ray beam (Kα1 and Kα2 unresolved; λ=1.54 Å) produced by a Rigaku Rotaflex RU-200, high-brilliance microfocus generator (Rigaku-MSC, The Woodlands, Tex.) as previously described (Mason et al., Biophys. J., vol. 55(4), pages 769-778 (1989)).
Routines written in Origin 8.6 (OriginLab Corporation, Northampton, Mass.) were used to determine total peak area (associated with all diffraction peaks in a given pattern) against which the second-order cholesterol domain peak was normalized.

[3] = test system: HUVECs challenged with oxLDL; test: NO and ONOO− release from HUVECs pretreated with agents, then oxLDL (Example 11, Objective 1); format: cell-based, human; conditions: pretreated 30 min at 10 μM, then oxLDL 11 mg/dL up to 3 hr, calcium ionophore 1.0 μM
Method: The omega-3 fatty acid, cis-5,8,11,14,17-eicosapentaenoic acid (EPA) and docosahexaenoic acid (DHA) were purchased from Sigma-Aldrich (Saint Louis, Mo.) and solubilized in redistilled ethanol to 11 mM under nitrogen atmosphere. EPA and DHA stock solutions were stored at −20° C. until use.
Human umbilical vein endothelial cells (HUVECs) were obtained from healthy, female donors and isolated into primary, proliferating cell cultures (Clonetics, San Diego, Calif.). […] The confluent cells (4 to 5×10^5 cells/35 mm dish) were plated with minimum essential medium containing 3 mM L-arginine and 0.1 mM BH4 [(6R)-5,6,7,8-tetrahydrobiopterin]. Before experimental use, the cells (from second or third passage) were rinsed twice with Tyrode-HEPES buffer with 1.8 mM CaCl2. […]
LDL underwent oxidation following the addition of 10 μM CuSO4. […] Sample TBARS concentrations were determined spectrophotometrically by measuring sample absorbances against a standard curve derived from the hydrolysis of 1,1,3,3-tetramethoxypropane. […]
The amperometric method (with a response time of 0.1 ms) provides a quantitative signal (current) that is directly proportional to changes (from basal levels) in NO or ONOO^− concentration. […] Basal NO or ONOO^− levels were measured by differential pulse voltammetry in separate experiments. […]
NO and ONOO^− release were measured following stimulation with calcium.

Row | Structure (SMILES) | LOOH levels ([1]; after autoxidation 37° C. 72 hours) | reduced LOOH levels compared to untreated controls ([1]; autoxidation 37° C. 72 hours) | inhibited relative cholesterol domain peak intensity [2] | NO/ONOO− Ratio [3] | NO/ONOO− Ratio ([3]; listed as Niacin)
1 | CC/C=C\C/C=C\C/C=C\C/C=C\C/C=C\CCCC(=O)O [EPA, cis-5,8,11,14,17-eicosapentaenoic acid] | 728 ± 30 µM | greater than 90% | more than 99% |  | 
2 | O=C(O)c1cccnc1 [niacin, nicotinic acid] |  |  |  | 1.45±0.14 | 1.45 ± 0.14
